Data taken from patent US20210069269A1, “METHOD FOR ALLEVIATING TOBACCO OR NICOTINE WITHDRAWAL SYMPTOMS” (DANSTAR FERMENT AG, priority 2018, published 2021).

System: C. elegans wild type strain N2
Assay: C. elegans behavioral toxicity (thrashing/swimming) assay after 24 hours exposure to nicotine or tobacco extract with or without probiotic bacteria
Details: control worms with no bacteria, FIG. 1
Experimental: Experiments were carried out with the wild type strain N2 of C. elegans. Worms were synchronized by isolating eggs from gravid adults, collecting the eggs in M9 buffer, hatching the eggs overnight in NGM plates and sterilely isolating L1-stage worms with M9 buffer. The L1-stage worms were transferred to NGM (Nematode Growth Medium) plates inoculated with Escherichia coli strain OP50 and incubated for four days at 15° C. to reach adulthood.
Similarly, a natural tobacco extract (ABT #6079, Advanced Biotech) was diluted in M9 buffer to a final concentration of 6.2 mM.
Adult worms were washed in M9 buffer and 250 μl of worm suspension was transferred to 24-well culture plates with or without nicotine (250 μl if present) or tobacco extract (250 μl if present) and with or without probiotic suspension (500 μl if present). The probiotic suspension was added first to the wells followed by the nicotine or the tobacco extract. At least 40 worms were present per well. The plates were incubated at 20° C. for 24 hours. After incubation period, worm suspension in each well was washed three times in M9 buffer (centrifugation of four minutes at 1000 rpm). The worms were transferred in new 24-well culture plates containing 1 ml of agar 1% in each well. The worms were allowed to equilibrate for 45 minutes, and then the thrashing (swimming) was recorded using a Leica EC3 camera. […]

SMILES: CN1CCCC1c1cccnc1.O.O.O=C(O)C(O)C(O)C(=O)O.O=C(O)C(O)C(O)C(=O)O (stereo not shown) [nicotine, Nicotine ditartrate dihydrate]
- behavioral toxicity of the challenge agent to worms without bacteria: induced a reversible paralysis
